Experimental findings from paper PMC9386001, “Identification of naturally occurring inhibitors in Xian-Ling-Gu-Bao capsule against the glucuronidation of estrogens” (Frontiers in Pharmacology, 2022) are described below.

One data set has as its target T1, UGT1A1 (Homo sapiens, UniProt P22309).
T1 sequence (P22309 26-533): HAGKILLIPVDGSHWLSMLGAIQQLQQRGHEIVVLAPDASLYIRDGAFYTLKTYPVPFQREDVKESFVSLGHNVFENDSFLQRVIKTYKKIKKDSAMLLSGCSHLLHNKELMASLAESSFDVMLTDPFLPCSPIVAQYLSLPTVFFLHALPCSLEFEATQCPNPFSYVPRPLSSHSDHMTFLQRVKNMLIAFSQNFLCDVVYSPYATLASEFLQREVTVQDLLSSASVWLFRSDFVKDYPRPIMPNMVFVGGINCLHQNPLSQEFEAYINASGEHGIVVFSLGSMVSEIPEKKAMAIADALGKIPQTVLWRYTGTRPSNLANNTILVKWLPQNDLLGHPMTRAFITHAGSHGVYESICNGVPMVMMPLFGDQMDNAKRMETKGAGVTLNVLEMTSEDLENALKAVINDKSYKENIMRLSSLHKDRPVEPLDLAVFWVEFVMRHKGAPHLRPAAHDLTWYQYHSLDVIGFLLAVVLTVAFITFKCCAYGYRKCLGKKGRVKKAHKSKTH
The data set can be described thus: Inhibition of UGT1A1 (β-estradiol-3-O-glucuronidation). To be noted: for Inhibitory type: best model by smallest AIC and SC; for activity at 10 µM: human. On the procedure:
(§1) The final volume of solvent in incubations was 1%. In addition, emodin, atazanavir, and diclofenac were considered as positive controls for UGT1A10, UGT1A1, and UGT2B7, respectively.
(§2) Competitive inhibition, non-competitive inhibition, and mixed-type inhibition models were used to estimate the Ki values by nonlinear regression based on Eqs 6–8, respectively.

Another data set has as its target T2, UGT1A10 (Homo sapiens, UniProt Q9HAW8).
T2 sequence (Q9HAW8 26-530): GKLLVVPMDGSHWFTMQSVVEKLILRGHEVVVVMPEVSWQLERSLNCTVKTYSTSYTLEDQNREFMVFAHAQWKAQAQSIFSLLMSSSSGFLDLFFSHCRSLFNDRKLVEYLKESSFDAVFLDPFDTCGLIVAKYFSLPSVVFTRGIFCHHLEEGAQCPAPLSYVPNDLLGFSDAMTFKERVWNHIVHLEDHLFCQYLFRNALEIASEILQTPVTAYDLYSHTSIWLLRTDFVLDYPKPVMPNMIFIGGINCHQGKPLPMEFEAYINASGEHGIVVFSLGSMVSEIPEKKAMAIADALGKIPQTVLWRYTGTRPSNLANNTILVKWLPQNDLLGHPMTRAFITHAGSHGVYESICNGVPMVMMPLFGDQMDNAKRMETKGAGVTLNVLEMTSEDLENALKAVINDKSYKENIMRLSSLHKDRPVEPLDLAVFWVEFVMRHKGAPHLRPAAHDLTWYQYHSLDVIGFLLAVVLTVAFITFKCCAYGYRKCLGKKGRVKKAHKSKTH
The data set can be described thus: Inhibition of UGT1A10 (4-methylumbelliferone-O-glucuronidation). To be noted: for Inhibitory type: best model by smallest AIC and SC; for activity at 10 µM: human, expressed human UGT1A10 enzyme, probe 4-methylumbelliferone (4-MU). On the procedure: as §1, §2

The target in a further data set is T3, UGT2B7 (Homo sapiens, UniProt P16662).
T3 sequence (P16662 24-529): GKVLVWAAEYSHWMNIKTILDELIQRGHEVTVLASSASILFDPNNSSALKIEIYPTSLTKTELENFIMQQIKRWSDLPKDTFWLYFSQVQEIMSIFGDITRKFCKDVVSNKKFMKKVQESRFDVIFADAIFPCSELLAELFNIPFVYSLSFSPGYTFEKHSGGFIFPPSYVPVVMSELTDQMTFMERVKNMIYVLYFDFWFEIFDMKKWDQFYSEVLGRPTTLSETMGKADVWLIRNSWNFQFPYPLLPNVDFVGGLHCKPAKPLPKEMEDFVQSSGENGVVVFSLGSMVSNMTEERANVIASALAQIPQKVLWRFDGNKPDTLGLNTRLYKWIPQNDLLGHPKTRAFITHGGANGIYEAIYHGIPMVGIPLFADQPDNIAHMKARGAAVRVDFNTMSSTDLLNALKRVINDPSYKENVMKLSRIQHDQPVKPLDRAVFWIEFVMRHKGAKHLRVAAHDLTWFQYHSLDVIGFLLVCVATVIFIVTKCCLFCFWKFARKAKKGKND
The data set can be described thus: Inhibition of UGT2B7 (zidovudine-N-glucuronidation). To be noted: for Inhibitory type: best model by smallest AIC and SC; for activity at 10 µM: human, probe zidovudine (AZT). The method, then: as §1, §2

Substrate in data set [1]: C[C@]12CC[C@@H]3c4ccc(O)cc4CC[C@H]3[C@@H]1C[C@@H](O)[C@@H]2O
The data set can be described thus: cells, lysate or membranes named. The settings on record: other: UGT2B7; 16-O-glucuronide formation; pH 7.4; 37.0 °C.

The mark [2] stands for this setting: human UGT1A1 enzyme, probe β-estradiol (E2).
Setting [3] is: UGT2B7 enzyme (optimized UGT2B7 incubation system).

Where two headings read alike, the source gives them in different places.

For `CC(C)=CCc1cc(-c2coc3cc(O)ccc3c2=O)ccc1O` [Neobavaisoflavone, neobavaisoflavone], the IC50 was found to be 2860 ± 140 nM against UGT1A1, 3990 ± 670 nM at UGT1A10 and 1170 ± 100 nM against UGT2B7. In addition, the Ki at UGT1A1 was determined as 780 ± 160 nM; on UGT1A10, 2600 ± 230 nM; at UGT2B7, 390 ± 30 nM. Moreover, the Inhibitory type entry at UGT1A1 (UGT1A1) was “Non-competitive”; on UGT1A10 (UGT1A10), “Competitive”; at UGT2B7 (UGT2B7) it was “Mixed type”. Moreover, the activity at 10 µM at UGT1A1 (setting [2]) turned out to be 7.42%; on UGT1A10 it was 31.1%; on UGT2B7 (setting [3]), 10.2%. The molecule further returned a α on UGT2B7 (UGT2B7, mixed-type inhibition model, αKi) of 5.15 ± 2.08.
At UGT1A1, `O=C(C=Cc1ccc(O)c2c1C(C(=O)OC(Cc1ccc(O)c(O)c1)C(=O)O)C(c1ccc(O)c(O)c1)O2)OC(Cc1ccc(O)c(O)c1)C(=O)O` (stereo not shown) [Salvianolic acid B, salvianolic acid B] showed an IC50 of 3780 ± 530 nM, a Ki of 2160 ± 210 nM and an activity at 10 µM of 36.2%. For the same molecule, the Inhibitory type result at UGT1A1 (UGT1A1) is recorded as “Competitive”.
Molecule `C=C[C@@](C)(/C=C/c1ccc(O)cc1)CCC=C(C)C` [Bakuchiol, bakuchiol] displayed an IC50 against UGT2B7 of 4550 ± 430 nM. Further, on UGT2B7 (UGT2B7), the Inhibitory type entry is on record as “Competitive”. On UGT2B7 (setting [3]), the activity at 10 µM was 35.5%.
With `CC(C)=CCc1cc(C(=O)/C=C/c2ccc(O)cc2)c(O)cc1O` [Bavachalcone, bavachalcone], the IC50 is 530 ± 70 nM on UGT1A1 and 4650 ± 520 nM on UGT2B7. Further, the values for the Ki at UGT1A1 and on UGT2B7 were 1100 ± 80 nM and 1870 ± 200 nM, respectively. In addition, the Inhibitory type result at UGT1A1 (UGT1A1) is reported as “Non-competitive”; at UGT2B7 (UGT2B7), “Competitive”. The activity at 10 µM turned out to be 13% at UGT1A1 (setting [2]) and 27.2% on UGT2B7 (setting [3]).
For the molecule `COc1ccc(-c2oc3c(CC=C(C)C)c(O[C@@H]4O[C@H](CO)[C@@H](O)[C@H](O)[C@H]4O)cc(O)c3c(=O)c2O)cc1` [Icariside I, icariside I], the figures for the IC50 against UGT1A1 and against UGT1A10 were 3280 ± 1200 nM and 1390 ± 330 nM, respectively. Moreover, the Ki on UGT1A1 worked out at 6010 ± 470 nM; at UGT1A10 it was 1920 ± 260 nM. The Inhibitory type result at UGT1A1 (UGT1A1) is given as “Non-competitive”; at UGT1A10 (UGT1A10), “Competitive”. For the same molecule, the activity at 10 µM at UGT1A1 (setting [2]) is 35.5%; on UGT1A10, 26.5%.
With bavachinin, at UGT1A10 (10 μM, % of negative control), the “residual activity of UGT1A10” value came to 37.70%. Also, the Inhibitory type entry on UGT1A10 (UGT1A10) and on UGT2B7 (UGT2B7) was “Competitive” throughout. In addition, the half-maximal inhibitory concentration (IC50) against UGT1A10 (UGT1A10, substrate 4-MU) was found to be 5420 ± 640 nM; on UGT2B7 (UGT2B7, substrate AZT), 2270 ± 260 nM. Besides, the Ki came to 3290 ± 230 nM on UGT1A10 (UGT1A10, substrate 4-MU) and 1110 ± 170 nM on UGT2B7 (UGT2B7, substrate AZT). Also, the “residual activity (Figures 3G–I, UGT2B7)” value at UGT2B7 (10 μM, % of negative control) came out at 13.23%.
Regarding `CC(C)=CCc1c(O)ccc2c1O[C@H](c1ccc(O)cc1)CC2=O` [Isobavachin, isobavachin], the IC50 against UGT1A1 was determined as 1730 ± 110 nM; against UGT1A10, 3620 ± 360 nM; on UGT2B7, 110 ± 10 nM. For the same molecule, the Inhibitory type entry is “Competitive” on UGT1A1 (UGT1A1), “Non-competitive” at UGT1A10 (UGT1A10) and “Competitive” at UGT2B7 (UGT2B7). Moreover, the Ki came out at 3350 ± 530 nM at UGT1A1 (UGT1A1, substrate E2); 1810 ± 280 nM on UGT1A10; 20 ± 10 nM at UGT2B7 (UGT2B7, substrate AZT). The activity at 10 µM at UGT1A1 (setting [2]) amounted to 4.58%; at UGT1A10, 20.4%; on UGT2B7 (setting [3]) it was 0%.
In the case of `COC(=O)N[C@H](C(=O)N[C@@H](Cc1ccccc1)[C@@H](O)CN(Cc1ccc(-c2ccccn2)cc1)NC(=O)[C@@H](NC(=O)OC)C(C)(C)C)C(C)(C)C` [atazanavir, reference compound], the activity at 10 µM at UGT1A1 (expressed human UGT1A1 enzyme, probe β-estradiol (E2)) stood at 4.38%.
On UGT1A1, `CC(C)=CCc1cc2c(cc1O)oc(=O)c1c3ccc(O)cc3oc21` [Psoralidin, psoralidin] showed an IC50 of 1950 ± 150 nM and a Ki of 980 ± 230 nM. The Inhibitory type result at UGT1A1 (UGT1A1) is “Non-competitive”. The activity at 10 µM on UGT1A1 (setting [2]) was found to be 1.48%.
In the case of `COc1ccc(-c2oc3c(CC=C(C)C)c(O)cc(O)c3c(=O)c2O)cc1` [Icaritin, icaritin], at UGT1A1, the IC50 is 1280 ± 260 nM and the Ki turned out to be 420 ± 170 nM. Also, the Inhibitory type result at UGT1A1 (UGT1A1) is reported as “Non-competitive”. In addition, on UGT1A1 (setting [2]), the activity at 10 µM is 10.2%.
`O=C(O)Cc1ccccc1Nc1c(Cl)cccc1Cl` [diclofenac, reference compound] yielded an activity at 10 µM at UGT2B7 (expressed human UGT2B7 enzyme) of 53.9%.
At UGT1A10, `COc1ccc(-c2oc3c(CC=C(C)C)c(O[C@@H]4O[C@H](CO)[C@@H](O)[C@H](O)[C@H]4O)cc(O)c3c(=O)c2O[C@@H]2O[C@@H](C)[C@H](O)[C@@H](O)[C@H]2O)cc1` [Icariin, icariin] showed an IC50 of 5940 ± 1240 nM, a Ki of 9770 ± 820 nM and an activity at 10 µM of 37.3%.
`Cc1cc(O)c2c(c1)C(=O)c1cc(O)cc(O)c1C2=O` [emodin, reference compound] yielded an activity at 10 µM on UGT1A10 of 52.4%.
Consider `CC(C)=CCc1c(O)ccc(C(=O)/C=C/c2ccc(O)cc2)c1O` [Isobavachalcone, isobavachalcone], for which the IC50 at UGT1A1 is 1650 ± 150 nM; at UGT1A10 it was 2800 ± 300 nM; on UGT2B7, 1380 ± 220 nM. Besides, the Ki on UGT1A1 was determined as 1200 ± 120 nM; at UGT1A10, 1660 ± 190 nM; at UGT2B7, 300 ± 70 nM. The Inhibitory type result is “Non-competitive” on UGT1A1 (UGT1A1), “Non-competitive” at UGT1A10 (UGT1A10) and “Competitive” at UGT2B7 (UGT2B7). Moreover, the results for the activity at 10 µM at UGT1A1 (setting [2]), on UGT1A10 and at UGT2B7 (setting [3]) were 3.97%, 8.61% and 0%, respectively.
icariside II: the Inhibitory type entry at UGT1A1 (UGT1A1), on UGT1A10 (UGT1A10) and at UGT2B7 (UGT2B7) was “Competitive” throughout.

B1: UGT2B7 (Homo sapiens) (protein)
chain: GKVLVWAAEYSHWMNIKTILDELIQRGHEVTVLASSASILFDPNNSSALKIEIYPTSLTKTELENFIMQQIKRWSDLPKDTFWLYFSQVQEIMSIFGDITRKFCKDVVSNKKFMKKVQESRFDVIFADAIFPCSELLAELFNIPFVYSLSFSPGYTFEKHSGGFIFPPSYVPVVMSELTDQMTFMERVKNMIYVLYFDFWFEIFDMKKWDQFYSEVLGRPTTLSETMGKADVWLIRNSWNFQFPYPLLPNVDFVGGLHCKPAKPLPKEMEDFVQSSGENGVVVFSLGSMVSNMTEERANVIASALAQIPQKVLWRFDGNKPDTLGLNTRLYKWIPQNDLLGHPKTRAFITHGGANGIYEAIYHGIPMVGIPLFADQPDNIAHMKARGAAVRVDFNTMSSTDLLNALKRVINDPSYKENVMKLSRIQHDQPVKPLDRAVFWIEFVMRHKGAKHLRVAAHDLTWFQYHSLDVIGFLLVCVATVIFIVTKCCLFCFWKFARKAKKGKND
On to B1, for which, in data set [1], the K0.5 was determined as 9.92 ± 0.69 µM, the Vmax was found to be 0.00788 µmol/min/mg and the Vmax/Km was 794 µL/min/mg.

The IC50 is the concentration that gives 50% inhibition. Lower therefore signals greater potency in that assay. The term Ki denotes the dissociation constant of the complex between target and ligand, obtained from inhibition or displacement. A high value points to lower affinity. What is called Vmax is the top rate of the reaction or transport when substrate is in excess.
